This is an account of results in US20100249089A1, “ABCG2 INHIBITOR” (KABUSHIKI KAISHA YAKULT HONSHA, priority 2007, published 2010).

Like-named read-outs stand apart in the source and are kept apart here.

The test system of data set [1] is BCRP-gene-transfected human colon cancer HCT116 cells (HCT116/BCRP cells). The experiment in a line: Effect of overcoming anticancer agent resistance in vivo (oral administration), HCT116/BCRP xenograft with CPT-11. Further details: species or system BALB/c male nude mice. As to the method:
To an inguinal region of each of 6-week-old BALB/c male nude mice (5 mice/group), BCRP-gene-transfected human colon cancer HCT116 cells (HCT116/BCRP cells) (obtained from Dr. Yoshikazu Sugimoto, The Cancer Chemotherapy Center of Japanese Foundation for Cancer Research) were subcutaneously transplanted (2×10^6 cells/0.1 mL/mouse). When the tumor volume as estimated from (1/2)ab^2 (a: longer tumor diameter, b: shorter tumor diameter) reached about 100 to 150 mm^3, each of the compounds of the present invention shown in Tables 1 to 4 and a positive control compound (i.e., Compound 14 ((Z)-2-(3,4-dimethoxy-phenyl)-3-{5-[4-(2-hydroxy-ethyl)-piperazin-1-yl]-thiophen-2-yl}-acrylonitrile hydrochloride)), disclosed in Patent Document 3 (WO 2006/106778)) (hereinafter referred to as Earlier Application Compound 14) was orally administered once a day for nine days (9 times in total). […] The dose of each of the compounds of the present invention was adjusted to 0.20 or 0.40 mmol/kg/day, and that of the positive control compound was adjusted to 0.23 or 0.46 mmol/kg/day. For administration, Compound 3 or 5 of the present invention was dissolved in 5% glucose solution, and Compound 4 or 6 was dissolved in Britton-Robinson buffer. […] A solvent was solely administered to a control group. On day 21 from start of administration, a tumor was extirpated from each mouse and weighed, and the tumor growth inhibition ratio IR (%) was derived from the following equation:
Tumor growth inhibition ratio IR (%)=(1−average tumor weight of each administration group/average tumor weight of control group)×100.

Data set [2] in a line: Solubility (HPLC quantification of supernatant). The following applies: thermodynamic from solid, room temperature, stirred about 30 minutes, 100 mg/mL charged. The data set is classed as physicochemical. As to the method:
Each (10 mg) of the compounds of the present invention and Earlier Application Compound 14 shown in Table 5 was weighed and placed in a sealable container, and water or 5% glucose solution was added to the container in such an amount as to adjust the final concentration to 100 mg/mL. The contents of the container were stirred at room temperature for about 30 minutes, followed by centrifugation. The compound concentration of the supernatant recovered through centrifugation was quantified through high-performance liquid chromatography.

Data set [3] in a line: Solubility (HPLC quantification of supernatant). The data set is classed as physicochemical. The following applies: saline or isotonic, thermodynamic from solid; physiological saline, room temperature.
[4] abbreviates: compound 0.20 mmol/kg/day oral once a day for nine days + CPT-11 45 mg/kg/day i.v. day 1, 5, 9, day 21, vs control group.
Setting [5] is: compound 0.20 mmol/kg/day oral once a day for nine days + CPT-11 45 mg/kg/day i.v. day 1, 5, 9, tumor weighed day 21.
[6] abbreviates: compound 0.40 mmol/kg/day oral once a day for nine days + CPT-11 45 mg/kg/day i.v. day 1, 5, 9, day 21, vs control group.
[7] abbreviates: compound 0.40 mmol/kg/day oral once a day for nine days + CPT-11 45 mg/kg/day i.v. day 1, 5, 9, tumor weighed day 21.
Setting [8] is: saline or isotonic, 5% glucose solution, read-out: Solubility in 5% glucose.
The mark [9] stands for this setting: water, read-out: Solubility in water.
[10] abbreviates: positive control 100 mg/kg/day (0.23 mmol/kg/day) oral for nine days + CPT-11 45 mg/kg/day i.v. day 1, 5, 9, day 21.
Setting [11] is: positive control 200 mg/kg/day (0.46 mmol/kg/day) oral for nine days + CPT-11 45 mg/kg/day i.v. day 1, 5, 9, day 21.

What is called solubility is the dissolved amount per volume that the medium holds. On to `COc1ccc(/C(C#N)=C/c2ccc(N3CCC(OC(=O)CN4CCCCC4)CC3)s2)cc1OC.CS(=O)(=O)O` [Compound 5, piperidin-1-yl-acetic acid 1-[5-[(Z)-2-cyano-2-(3,4-dimethoxy-phenyl)-vinyl]-thiophen-2-yl]-piperidin-4-yl ester methanesulfonate], for which the “Tumor growth inhibition ratio IR (%)” value in data set [1] (setting [4]) was 50.9%; in data set [1] (setting [6]), 55.9%. Moreover, the “Tumor weight (g) Mean ± S.D.” value is reported as 0.73 ± 0.12 g in data set [1] (setting [5]) and 0.65 ± 0.16 g in data set [1] (setting [7]). For the same compound, the solubility in data set [2] (setting [8]) was at least 100 mg/mL; in data set [2] (setting [9]) it was at least 100 mg/mL; in data set [3] it was 100 mg/mL.
On to `COc1ccc(/C(C#N)=C/c2ccc(N3CCC(OC(=O)CN4CCC(O)CC4)CC3)s2)cc1OC.Cl` [Compound 4, (4-hydroxy-piperidin-1-yl)-acetic acid 1-[5-[(Z)-2-cyano-2-(3,4-dimethoxy-phenyl)-vinyl]-thiophen-2-yl]-piperidin-4-yl ester hydrochloride], for which the “Tumor growth inhibition ratio IR (%)” value in data set [1] (setting [4]) is given as 31.8%; in data set [1] (setting [6]) it was 46.4%. The figures for the “Tumor weight (g) Mean ± S.D.” value in data set [1] (setting [5]) and in data set [1] (setting [7]) were 0.89 ± 0.09 g and 0.70 ± 0.11 g, respectively.
With `COc1ccc(/C(C#N)=C/c2ccc(N3CCC(OC(=O)CN4CCCCCCC4)CC3)s2)cc1OC.CS(=O)(=O)O` [Compound 18, azocan-1-yl-acetic acid 1-[5-[(Z)-2-cyano-2-(3,4-dimethoxy-phenyl)-vinyl]-thiophen-2-yl]-piperidin-4-yl ester methanesulfonate], the solubility in data set [2] (setting [8]) and in data set [2] (setting [9]) was at least 100 mg/mL each time.
`COc1ccc(/C(C#N)=C/c2ccc(N3CCN(CCO)CC3)s2)cc1OC.Cl` [EAC 14, (Z)-2-(3,4-dimethoxy-phenyl)-3-{5-[4-(2-hydroxy-ethyl)-piperazin-1-yl]-thiophen-2-yl}-acrylonitrile hydrochloride, reference compound]: the “Tumor growth inhibition ratio IR (%)” value in data set [1] (setting [10]) is 23.9%; in data set [1] (setting [11]) it was 35.6%. Moreover, the figures for the “Tumor weight (g) Mean ± S.D.” value in data set [1] (setting [10]) and in data set [1] (setting [11]) were 1.04 ± 0.17 g and 0.88 ± 0.14 g, respectively. The solubility in data set [2] (setting [8]) was 6.6 mg/mL; in data set [2] (setting [9]), 6.6 mg/mL; in data set [3], below 1 mg/mL.
`COc1ccc(/C(C#N)=C/c2ccc(N3CCC(OC(=O)CN4CCN(C)CC4)CC3)s2)cc1OC.CS(=O)(=O)O` [Compound 20, (4-methyl-piperazin-1-yl)-acetic acid 1-[5-[(Z)-2-cyano-2-(3,4-dimethoxy-phenyl)-vinyl]-thiophen-2-yl]-piperidin-4-yl ester methanesulfonate]: the solubility was at least 100 mg/mL in data set [2] (setting [8]), at least 100 mg/mL in data set [2] (setting [9]) and 100 mg/mL in data set [3].
For the compound `COc1ccc(/C(C#N)=C/c2ccc(N3CCC(OC(=O)CN4CCCCC4C)CC3)s2)cc1OC.CS(=O)(=O)O` (stereo not drawn) [Compound 12, (2-methyl-piperidin-1-yl)-acetic acid 1-[5-[(Z)-2-cyano-2-(3,4-dimethoxy-phenyl)-vinyl]-thiophen-2-yl]-piperidin-4-yl ester methanesulfonate], the solubility was at least 100 mg/mL in data set [2] (setting [8]), at least 100 mg/mL in data set [2] (setting [9]) and 100 mg/mL in data set [3].
For `COc1ccc(/C(C#N)=C/c2ccc(N3CCC(OC(=O)CN4CCCC(CO)C4)CC3)s2)cc1OC.CS(=O)(=O)O` (stereo not drawn) [Compound 14, (3-hydroxymethyl-piperidin-1-yl)-acetic acid 1-[5-[(Z)-2-cyano-2-(3,4-dimethoxy-phenyl)-vinyl]-thiophen-2-yl]-piperidin-4-yl ester methanesulfonate], the solubility in data set [2] (setting [8]) is at least 100 mg/mL; in data set [2] (setting [9]), at least 100 mg/mL; in data set [3] it was 100 mg/mL.
As to `COc1ccc(/C(C#N)=C/c2ccc(N3CCC(OC(=O)CN4CCCCC4)CC3)s2)cc1OC.Cl` [Compound 3, piperidin-1-yl-acetic acid 1-[5-[(Z)-2-cyano-2-(3,4-dimethoxy-phenyl)-vinyl]-thiophen-2-yl]-piperidin-4-yl ester hydrochloride], the “Tumor growth inhibition ratio IR (%)” value amounted to 51.9% in data set [1] (setting [4]) and 54.7% in data set [1] (setting [6]). In addition, the “Tumor weight (g) Mean ± S.D.” value was 0.73 ± 0.07 g in data set [1] (setting [5]) and 0.65 ± 0.11 g in data set [1] (setting [7]).
`COc1ccc(/C(C#N)=C/c2ccc(N3CCC(OC(=O)CN4CCOCC4)CC3)s2)cc1OC.CS(=O)(=O)O` [Compound 22, morpholin-4-yl-acetic acid 1-[5-[(Z)-2-cyano-2-(3,4-dimethoxy-phenyl)-vinyl]-thiophen-2-yl]-piperidin-4-yl ester methanesulfonate]: the solubility in data set [2] (setting [8]) and in data set [2] (setting [9]) was at least 100 mg/mL in each case.
Turning to `COc1ccc(/C(C#N)=C/c2ccc(N3CCC(OC(=O)CN4CCC4)CC3)s2)cc1OC.CS(=O)(=O)O` [Compound 8, azetidin-1-yl-acetic acid 1-[5-[(Z)-2-cyano-2-(3,4-dimethoxy-phenyl)-vinyl]-thiophen-2-yl]-piperidin-4-yl ester methanesulfonate], the solubility in data set [2] (setting [8]) and in data set [2] (setting [9]) was at least 100 mg/mL in each case.
Take `COc1ccc(/C(C#N)=C/c2ccc(N3CCC(OC(=O)CN4CCC(O)CC4)CC3)s2)cc1OC.CS(=O)(=O)O` [Compound 6, (4-hydroxy-piperidin-1-yl)-acetic acid 1-[5-[(Z)-2-cyano-2-(3,4-dimethoxy-phenyl)-vinyl]-thiophen-2-yl]-piperidin-4-yl ester methanesulfonate]: the “Tumor growth inhibition ratio IR (%)” value in data set [1] (setting [4]) is 36.9%; in data set [1] (setting [6]), 41.8%. Moreover, the “Tumor weight (g) Mean ± S.D.” value was 0.82 ± 0.04 g in data set [1] (setting [5]) and 0.76 ± 0.09 g in data set [1] (setting [7]).
For `COc1ccc(/C(C#N)=C/c2ccc(N3CCC(OC(=O)CN4CCCC4)CC3)s2)cc1OC.CS(=O)(=O)O` [Compound 10, pyrrolidin-1-yl-acetic acid 1-[5-[(Z)-2-cyano-2-(3,4-dimethoxy-phenyl)-vinyl]-thiophen-2-yl]-piperidin-4-yl ester methanesulfonate], the solubility in data set [2] (setting [8]) and in data set [2] (setting [9]) was at least 100 mg/mL each time.
In the case of `COc1ccc(/C(C#N)=C/c2ccc(N3CCC(OC(=O)CN4CCCCCC4)CC3)s2)cc1OC.CS(=O)(=O)O` [Compound 16, azepan-1-yl-acetic acid 1-[5-[(Z)-2-cyano-2-(3,4-dimethoxy-phenyl)-vinyl]-thiophen-2-yl]-piperidin-4-yl ester methanesulfonate], the solubility in data set [2] (setting [8]) and in data set [2] (setting [9]) was at least 100 mg/mL in each case.
